Measured values from PubChem BioAssay AID1259407 (Chemical Carcinogenesis Research Information System (CCRIS), 2018).
Active and inactive are the calls of the source. How the calls were made is not given here.

System: CCRIS mutagenicity, Ames/micronucleus/aberration tests
Test: CCRIS mutagenicity studies
Conditions: Test System: AMES SALMONELLA TYPHIMURIUM

Measured: mutagenic call

CC1(C)[C@@H]2CC[C@@]1(C)[C@@H](O)C2
inactive: Strain/Indicator: TA97, Metabolic Activation: NONE, Method: PREINCUBATION inactive; negative | Strain/Indicator: TA97, Metabolic Activation: NONE, Method: PREINCUBATION (20 MIN) inactive; negative | Strain/Indicator: TA97, Metabolic Activation: RAT, LIVER, S-9, AROCLOR 1254, Method: PREINCUBATION inactive; negative | Strain/Indicator: TA97, Metabolic Activation: S-9, Method: PREINCUBATION (20 MIN) inactive; negative | Strain/Indicator: TA98, Metabolic Activation: NONE, Method: PREINCUBATION (20 MIN) inactive; negative | Strain/Indicator: TA98, Metabolic Activation: S-9, Method: PREINCUBATION (20 MIN) inactive; negative | Strain/Indicator: TA100, Metabolic Activation: NONE, Method: PREINCUBATION (20 MIN) inactive; negative | Strain/Indicator: TA100, Metabolic Activation: S-9, Method: PREINCUBATION (20 MIN) inactive; negative | Strain/Indicator: TA102, Metabolic Activation: NONE, Method: PREINCUBATION inactive; negative | Strain/Indicator: TA102, Metabolic Activation: RAT, LIVER, S-9, AROCLOR 1254, Method: PREINCUBATION inactive; negative
